The results in this text go back to patent US11478474B2, “2-(3′-(hydroxymethyl)-1-methyl-5-((5-(2-methyl-4-(oxetan-3-yl)piperazin-1-yl)pyridin-2-yl)amino)-6-oxo-1,6-dihydro-[3,4′-bipyridin]-2′-yl)-7,7-dimethyl-7,8-dihydro-2H-cyclopenta[4,5]pyrrolo[1,2-a]pyrazin-1(6H)-one as a BTK inhibitor” (HUTCHISON MEDIPHARMA LIMITED, priority 2020, dated 2022).

The target of one assay is BTK recombinant protein (Homo sapiens (Human), UniProt Q06187). The experiment in a line: Determination of biochemical BTK (Z'-LYTE kinase assay). The procedure, abridged:
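Human BTK recombinant kinase (3.32 nM final) was preincubated with compound for 30 min at 4 °C. Reaction ran 1 h at room temperature with Tyr01 FRET peptide (2 μM) and ATP (32 μM); development protease then added. Coumarin 445 nm/fluorescein 520 nm emission ratio (400 nm excitation) gave inhibition across 8 concentrations, 3000–1.37 nM.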

Assay [1] deals with phosphorylated BTK in Ramos cells (Homo sapiens (Human), UniProt Q06187). As to the kind of experiment: Determination of phosphorylated BTK in Ramos cells (BTK phospho-Y223 HTRF). It is filed as cell-based. As to conditions: anti-human IgM + hydrogen peroxide stimulation. A digest of the protocol:
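BTK Y223 phosphorylation measured by HTRF (665/615 nm) in lysates of Ramos cells. Cells were serum-starved 2 h, exposed to compound for 1 h (final 0.00018–3.0 μM, 0.3% DMSO), then stimulated 10 min with 10 μg/mL anti-IgM and 3.3 mM H2O2. IC50 derived from percent inhibition between unstimulated and stimulated controls.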
(In general: In TR-FRET formats the signal depends on donor and acceptor labels being close together.)

SMILES strings stand for the structures.

Sequence of phosphorylated BTK in Ramos cells (Q06187 whole entry): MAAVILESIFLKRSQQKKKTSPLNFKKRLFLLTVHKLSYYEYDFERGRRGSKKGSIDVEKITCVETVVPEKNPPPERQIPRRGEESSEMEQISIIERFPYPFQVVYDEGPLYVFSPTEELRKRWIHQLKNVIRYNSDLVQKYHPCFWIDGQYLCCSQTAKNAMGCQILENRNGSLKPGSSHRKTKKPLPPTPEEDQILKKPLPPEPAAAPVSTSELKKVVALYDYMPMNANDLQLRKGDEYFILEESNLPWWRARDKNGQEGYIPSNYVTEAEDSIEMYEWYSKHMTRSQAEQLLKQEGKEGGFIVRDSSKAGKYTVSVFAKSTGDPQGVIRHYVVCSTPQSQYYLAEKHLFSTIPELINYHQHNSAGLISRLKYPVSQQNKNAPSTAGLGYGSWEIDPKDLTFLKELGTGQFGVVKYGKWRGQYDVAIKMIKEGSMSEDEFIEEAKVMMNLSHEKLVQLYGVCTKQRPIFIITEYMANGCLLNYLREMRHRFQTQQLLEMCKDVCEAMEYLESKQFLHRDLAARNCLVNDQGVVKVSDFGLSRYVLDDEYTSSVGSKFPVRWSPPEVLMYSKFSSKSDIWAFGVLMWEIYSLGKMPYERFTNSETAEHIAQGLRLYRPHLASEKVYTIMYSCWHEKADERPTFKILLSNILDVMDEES
Sequence of BTK recombinant protein (Q06187 whole entry): as above

Broadly, the IC50 is the concentration needed to halve the response being measured. As for `COCCn1cc(Nc2cc(-c3ccnc(-n4ccn5c6c(cc5c4=O)CC(C)(C)C6)c3CO)cn(C)c2=O)cn1` [Compound 175], the IC50 on BTK recombinant protein stood at 71 nM; in assay [1], 40 nM.

In the case of `C[C@@H]1CN(c2ccc(Nc3cc(-c4ccnc(-n5ncn6c7c(cc6c5=O)CC(C)(C)C7)c4CO)cn(C)c3=O)nn2)[C@@H](C)CN1C1COC1` [Compound 209], the IC50 on BTK recombinant protein worked out at 11 nM; in assay [1], 5 nM.

Consider `Cn1cc(-c2ccnc(-n3ccn4c5c(cc4c3=O)CC(C)(C)C5)c2CO)cc(Nc2cccnn2)c1=O` [Compound 84], for which the values for the IC50 (on BTK recombinant protein; in assay [1]) were 9 nM and 11 nM, respectively.

For `Cn1nc(-c2ccnc(-n3ccn4c5c(cc4c3=O)CC(C)(C)C5)c2CO)cc(Nc2cn(CCF)nn2)c1=O` [Compound 32], the figures for the IC50 (at BTK recombinant protein; in assay [1]) were 17 nM and 30 nM, respectively.

With `C[C@H]1CN(CC#N)CCN1c1ccc(Nc2cc(-c3ccnc(-n4ccn5c6c(cc5c4=O)CC(C)(C)C6)c3CO)cn(C)c2=O)nc1` [Compound 102], the IC50 at BTK recombinant protein was determined as 11 nM; in assay [1], 2 nM.

Take `C[C@H]1CN(C2COC2)CCN1c1ccc(Nc2cc(-c3ccnc(-n4ccn5c6c(c(Br)c5c4=O)CC(C)(C)C6)c3CO)cn(C)c2=O)nc1` [Compound 62]: the concentration for half-maximal inhibition (IC50) on BTK recombinant protein came to 21 nM; in assay [1] it was 3 nM.

`C[C@H]1COCCN1c1ccc(Nc2cc(-c3ccnc(-n4ccn5c6c(cc5c4=O)CC(C)(C)C6)c3CO)cn(C)c2=O)nn1` [Compound 203]: the IC50 was under 1 nM on BTK recombinant protein and 7 nM in assay [1].

As for `C[C@H]1CN(C2COC2)CCN1c1ccc(Nc2cc(-c3ccnc(-n4ccn5c(cc6ccccc65)c4=O)c3CO)nn(C)c2=O)nc1` [Compound 76], the IC50 at BTK recombinant protein is 123 nM; in assay [1] it was 60 nM.

On to `CC[C@H]1CN(C2COC2)CCN1c1ccc(Nc2cc(-c3ccnc(-n4ccn5c6c(cc5c4=O)CC(C)(C)C6)c3CO)cn(C)c2=O)nn1` [Compound 217], for which the half-inhibitory concentration (IC50) on BTK recombinant protein turned out to be 8 nM; in assay [1], 10 nM.

Consider `Cn1cc(-c2ccnc(-n3ncn4c5c(cc4c3=O)CCCC5)c2CO)cc(Nc2cc3n(n2)CCN(C2COC2)C3)c1=O` [Compound 166], for which the IC50 on BTK recombinant protein is 35 nM; in assay [1], 121 nM.

As to `C[C@H]1CN(C2COC2)CCN1c1ccc(Nc2cc(-c3ccnc(-n4ccn5c(cc6cccc(F)c65)c4=O)c3CO)cn(C)c2=O)nc1` [Compound 52], the IC50 (at BTK recombinant protein; in assay [1]) was 18 nM each time.

On to `COCCN1CCn2nc(Nc3cc(-c4ccnc(-n5ccn6c7c(cc6c5=O)CC(C)(C)C7)c4CO)cn(C)c3=O)cc2[C@@H]1C` [Compound 116], for which the half-maximal inhibitory concentration (IC50) at BTK recombinant protein amounted to 10 nM; in assay [1], 11 nM.

Regarding `C[C@H]1COCCN1c1ccc(Nc2cc(-c3ccnc(-n4ncn5c6c(cc5c4=O)CC(C)(C)C6)c3CO)cn(C)c2=O)nc1` [Compound 196], the IC50 on BTK recombinant protein turned out to be 2 nM; in assay [1], 7 nM.

`C[C@H]1COCCN1c1ccc(Nc2cc(-c3ccnc(-n4ncn5c6c(cc5c4=O)CC(C)(C)C6)c3CO)cn(C)c2=O)nn1` [Compound 212]: the IC50 on BTK recombinant protein was 10 nM; in assay [1], 11 nM.

For `Cn1cc(-c2ccnc(-n3ccn4c5c(cc4c3=O)CC(C)(C)C5)c2CO)cc(Nc2ccc(-c3ccc(C4COC4)cc3)cn2)c1=O` [Compound 37], the IC50 at BTK recombinant protein was found to be 132 nM; in assay [1] it was 11 nM.

On to `C[C@H]1CN(C2COC2)CCN1c1ccc(Nc2cc(-c3ccnc(-n4ccn5c6c(cc5c4=O)CC(C)(C)C6)c3C=O)cn(C)c2=O)nc1` [Compound 72], for which the IC50 was 58 nM on BTK recombinant protein and 97 nM in assay [1].

For `Cn1cc(-c2ccnc(-n3ccn4c5c(cc4c3=O)CC(C)(C)C5)c2CO)cc(Nc2ccccn2)c1=O` [Compound 55], the IC50 at BTK recombinant protein stood at 19 nM; in assay [1] it was 8 nM.

Regarding `Cn1cc(-c2ccnc(-n3ccn4c5c(cc4c3=O)CC(C)(C)C5)c2CO)cc(Nc2ccncn2)c1=O` [Compound 83], the IC50 (on BTK recombinant protein; in assay [1]) was 13 nM each time.
